Assay results taken from US12263180B2, “Method for treatment of COVID-19-associated conditions” (priority 2020, dated 2025).
In brackets after ≈: the same amount, converted by molar mass. Read-outs that look alike come from different tables or passages of the source.

Tests used:
[1] = test system: LPS-induced ALI; conditions: mice; cited from earlier work
[2] = water solubility in aqueous buffer under physiological conditions
[3] = test system: MUC1; conditions: mouse model of ALI; cited from earlier work
[4] = human, in vivo; cited from earlier work
[5] = test system: chronic immune thrombocytopenia (ITP); conditions: ITP patients, two randomized studies; cited from earlier work
[6] = test system: human neutrophils; conditions: in vitro; cited from earlier work
[7] = test system: IL-6; conditions: RA patients, within the first week of treatment; cited from earlier work
[8] = physchem; conditions: aqueous buffer
[9] = in vivo
[10] = test system: COVID-19; test: Phase 3 placebo-controlled study in hospitalized COVID-19 patients; assay type: in vivo
[11] = test system: SARS-CoV-2 as well as other human and bat coronaviruses; conditions: human airway epithelial cells; cited from earlier work
[12] = test system: SARS-CoV-2 as well as other human and bat coronaviruses; conditions: mice; cited from earlier work
[13] = test system: COVID-19; conditions: critically ill COVID-19 patients, compared to standard care; cited from earlier work
[14] = target: human ACE2 (Homo sapiens, UniProt Q9BYF1); conditions: cited from earlier work
Sequence of human ACE2 (Q9BYF1 18-805): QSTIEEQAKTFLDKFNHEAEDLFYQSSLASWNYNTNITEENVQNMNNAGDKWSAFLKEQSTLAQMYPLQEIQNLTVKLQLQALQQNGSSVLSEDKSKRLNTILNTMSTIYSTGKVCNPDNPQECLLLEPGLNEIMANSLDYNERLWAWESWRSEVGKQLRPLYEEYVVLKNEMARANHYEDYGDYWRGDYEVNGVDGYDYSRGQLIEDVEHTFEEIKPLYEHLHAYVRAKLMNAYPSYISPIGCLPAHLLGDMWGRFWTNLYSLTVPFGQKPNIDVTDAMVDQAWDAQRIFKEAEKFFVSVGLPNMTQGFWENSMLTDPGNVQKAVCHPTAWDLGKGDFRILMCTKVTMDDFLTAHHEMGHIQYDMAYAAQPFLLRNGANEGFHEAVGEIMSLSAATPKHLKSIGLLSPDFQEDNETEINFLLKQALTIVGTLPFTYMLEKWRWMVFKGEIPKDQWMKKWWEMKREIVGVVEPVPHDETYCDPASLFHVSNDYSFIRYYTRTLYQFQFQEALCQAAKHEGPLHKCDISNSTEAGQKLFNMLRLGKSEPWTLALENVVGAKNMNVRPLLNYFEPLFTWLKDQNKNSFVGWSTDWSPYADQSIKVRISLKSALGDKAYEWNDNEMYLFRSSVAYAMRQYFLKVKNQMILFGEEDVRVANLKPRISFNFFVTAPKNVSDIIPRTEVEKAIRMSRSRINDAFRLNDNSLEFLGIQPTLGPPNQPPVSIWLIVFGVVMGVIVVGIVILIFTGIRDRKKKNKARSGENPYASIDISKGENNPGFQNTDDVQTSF

Question: What does the source list for `COc1cc(Nc2ncc(F)c(Nc3ccc4c(n3)NC(=O)C(C)(C)O4)n2)cc(OC)c1OC` [Compound 1, N4-(2,2-Dimethyl-3-oxo-4H-5-pyrid[1,4]oxazin-6-yl)-5-fluoro-N2-(3,4,5-trimethoxyphenyl)-2,4-pyrimidinediamine]?
Answer: protection in LPS-induced ALI [1]: protective; solubility [2]: 1 to 2 µg/mL (≈ 2.13 to 4.25 µM); MUC1 [3]: reduced MUC1

Question: For `COc1cc(Nc2ncc(F)c(Nc3ccc4c(n3)N(COP(=O)(O)O)C(=O)C(C)(C)O4)n2)cc(OC)c1OC` [Compound 4], which safety profile [4] is on record?
Answer: manageable safety profile

Question: What about the bleeding episodes [5] of the same compound?
Answer: decreased bleeding episodes

Question: And the platelet counts [5]?
Answer: increased platelet counts

Question: What about the NETosis [6] of the same compound?
Answer: block NETosis

Question: What about the “plasma levels of IL-6” value [7] of the same compound?
Answer: reduce plasma levels of IL-6

Question: And the solubility [8]?
Answer: > 5000 µg/mL

Question: What about the “oral bioavailability when formulated with progroup -CH2-O-P(O)(OH)2” value [9] of the same compound?
Answer: increased dramatically

Question: What about the “occurrence of several severe symptoms of COVID-19 (AKI, kidney malfunction, acute lung injury, thrombosis, coagulopathy)” value ([10]; vs placebo) of the same compound?
Answer: significantly reduced

Question: And the “percentage of COVID-19 infected patients that develop severe disease that requires intensive care” value ([10]; vs placebo)?
Answer: significantly reduce

Question: What about the “percentage of patients developing severe or critical disease” value ([10]; within 29 days of first dose, vs placebo) of the same compound?
Answer: significantly smaller percentage

Question: What about the “percentage of patients that develop ARDS” value ([10]; within patients requiring intensive care) of the same compound?
Answer: significantly reduce

Question: And the “number of patients that die” value ([10]; within patients that develop ARDS)?
Answer: significantly reduce

Question: Which results are given for `O=c1nc(NO)ccn1[C@@H]1O[C@H](CO)[C@@H](O)[C@H]1O` [N4-hydroxycytidine]?
Answer: inhibition of coronaviruses [11]: inhibit SARS-CoV-2 as well as other human and bat coronaviruses; inhibition of coronaviruses [12]: inhibit SARS-CoV-2 as well as other human and bat coronaviruses

Question: With `C[C@]12CCC(=O)C=C1CC[C@@H]1[C@@H]2[C@@H](O)C[C@@]2(C)[C@H]1CC[C@]2(O)C(=O)CO` [hydrocortisone, Hydrocortisone] as the compound, how does the mortality rate [13] read?
Answer: effective in reducing mortality rate

Question: Which IC50 [14] does the source give for `N[C@@H](CCN[C@@H](CCN1CC[C@H]1C(=O)O)C(=O)O)C(=O)O` [nicotianamine] here?
Answer: 84 nM
